Measurements: US9107852B2, “Uses of agonists of delta opioid receptor in cosmetic and dermocosmetic field” (Induchem Holding AG, priority 2012, dated 2015)
Ends that are not written are not given here.

System: reconstructed human epidermis (RHE)
Experiment: Protein expression (in situ immunolabeling) in RHE stimulated with cytokines
Type: cell-based
Settings: 3 PPM peptide, % of level in non treated RHE
Experimental: In the present study, the effects of a peptide on the expression of 7 proteins were assessed on a reconstructed human epidermis (RHE) model stimulated or not with a mix of cytokines (IL-17+OSM+TNF-α).
More precisely, effects of compounds were evaluated on the protein expression of markers involved in: • tight junctions (Occludin), • […] (Corneosdesmosin) • keratinocyte differentiation (keratin 10, involucrin, calmodulin-like5), • and lipid synthesis (Acyl-CoA synthetase and sulfotransferase 2B).
Reconstructed human epidermis (RHE) of 11 days old were prepared according to a derived method described by Poumay et al. (2004). These RHE were cultivated at 37° C. and 5% of CO2 in a specific maintenance medium.
The RHE were treated with assay medium containing or not (control) the test compounds or the JAK inhibitor I at 10 μM and incubated for 24 hours. After pre-incubation, assay medium and treatments were renewed and epidermises were stimulated with a cytokine mix (OSM+IL-17+TNF-α*) at 3 ng/ml and incubated for additional 48 hours. All experimental conditions were performed in n=3. *Oncostatin M (OSM)+Interleukin 17 (IL-17)+ Tumor necrosis factor alpha (TNF-α)
At the end of incubation, the supernatants were collected and the RHE were washed in phosphate buffered saline solution (PBS) for in situ immunolabeling.
After incubation, the RHE were snap-frozen in liquid isopentane/N2 and stored at −80° C. The transversal sections were carried out using a microtome (5 μm thickness, one slide per RHE, several sections per slide).
The sections were fixed with an acetone/methanol mix and dried. After PBS-milk 5% saturation, the sections were incubated with the specific primary antibody solutions. […] The sections were washed and then observed under epifluorescence microscopy.
After incubation, RHE were rinsed and fixed with formaldehyde solution. Fixed tissues were dehydrated in multiple baths with increasing concentration of ethanol and then embedded in paraffin. The transversal sections were carried out using a microtome (5 μm thickness) and stored at room temperature.
The sections were deparaffinized then the antigenic sites were retrieved. The sections were washed and incubated with hydrogen peroxide. The sections, once washed, were incubated with the primary antibody (anti-Calmodulin-like 5 or anti-SULT2B1). […] After peroxidase-conjugated streptavidine and peroxidase substrate addition, nuclei were counter-stained with a solution of haematoxylin. The sections were washed, mounted in aqueous medium and observed under transmitted-light microscopy.
Sections were observed using a NIKON E400 microscope. Images were captured with a NIKON DS-Ri1 and processed with NIS-Elements 3.10 software (3 pictures per replicate). The image analysis was performed by measuring the fluorescence intensity using Image J software.
Results were expressed in % of the level of expression of each protein maker in non treated RHE.

## YPLDLF [YPLDLF]
  Acyl-CoA synthetase protein expression level in RHE: 65%
  Calmodulin like 5 protein expression level in RHE: 100%
  Corneodesmosin protein expression level in RHE: 84%
  Involucrin protein expression level in RHE: 99%
  Keratin 10 protein expression level in RHE: 104%
  Occludin protein expression level in RHE: 97%
  Sulfotransferase 2B protein expression level in RHE: 100%
